Source: ChEMBL document CHEMBL1201862, “PubChem BioAssay data set” (2004)
Activity calls are given as the source filed them.

Assays:
[1] = target: Heat shock protein HSP 90-alpha (Homo sapiens, UniProt P07900); type: functional, organism-based
[2] = target: Glucose-6-phosphate 1-dehydrogenase (Homo sapiens, UniProt P11413); test: human G6PD enzyme inhibitors, dose response, selectivity assay for P. falciparum G6PD inhibitor project, biochemical, fluorescence (AID 504792); type: functional
[3] = target: T1, Corticotropin-releasing factor receptor 2/Corticotropin-releasing factor-binding protein (Homo sapiens, UniProt P24387+Q13324); test: Dose Response confirmation of uHTS hits for small molecule antagonists of the CRF-binding protein and CRF-R2 receptor complex.; type: functional; conditions: read-out: IC50_Mean
T1 sequence (Q13324 whole entry): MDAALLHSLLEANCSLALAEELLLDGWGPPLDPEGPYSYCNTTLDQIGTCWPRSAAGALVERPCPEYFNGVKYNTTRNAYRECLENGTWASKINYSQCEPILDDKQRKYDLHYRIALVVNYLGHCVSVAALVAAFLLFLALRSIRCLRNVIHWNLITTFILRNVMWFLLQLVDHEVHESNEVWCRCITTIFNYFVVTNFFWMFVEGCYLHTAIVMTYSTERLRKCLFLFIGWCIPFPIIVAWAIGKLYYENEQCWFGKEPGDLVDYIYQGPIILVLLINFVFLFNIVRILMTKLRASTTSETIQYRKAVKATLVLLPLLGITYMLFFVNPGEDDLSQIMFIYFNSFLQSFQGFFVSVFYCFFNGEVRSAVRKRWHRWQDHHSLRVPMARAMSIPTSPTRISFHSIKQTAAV
T1 sequence (P24387 whole entry): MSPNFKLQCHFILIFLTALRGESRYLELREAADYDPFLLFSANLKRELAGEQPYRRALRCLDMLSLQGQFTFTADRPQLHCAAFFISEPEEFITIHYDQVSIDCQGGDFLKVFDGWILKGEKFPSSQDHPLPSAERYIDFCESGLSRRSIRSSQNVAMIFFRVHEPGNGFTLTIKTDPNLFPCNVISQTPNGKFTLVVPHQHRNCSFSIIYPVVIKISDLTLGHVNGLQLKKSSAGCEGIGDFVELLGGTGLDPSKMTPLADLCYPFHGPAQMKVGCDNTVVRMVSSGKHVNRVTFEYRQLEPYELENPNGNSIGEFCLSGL

[4] = target: T1, Corticotropin-releasing factor receptor 2/Corticotropin-releasing factor-binding protein; test: activators of CRF receptor 2 with binding protein – uHTS hits, confirmation (AID 602473); type: functional; conditions: read-out: EC50_Mean
[5] = target: T2, Carboxy-terminal domain RNA polymerase II polypeptide A small phosphatase 1 (Homo sapiens, UniProt Q9GZU7); test: inhibitors of CTDSP1, concentration-response testing, biochemical assay, absorbance-based, actives from ultra-high-throughput screening (AID 540297); type: functional
T2 sequence (Q9GZU7 whole entry): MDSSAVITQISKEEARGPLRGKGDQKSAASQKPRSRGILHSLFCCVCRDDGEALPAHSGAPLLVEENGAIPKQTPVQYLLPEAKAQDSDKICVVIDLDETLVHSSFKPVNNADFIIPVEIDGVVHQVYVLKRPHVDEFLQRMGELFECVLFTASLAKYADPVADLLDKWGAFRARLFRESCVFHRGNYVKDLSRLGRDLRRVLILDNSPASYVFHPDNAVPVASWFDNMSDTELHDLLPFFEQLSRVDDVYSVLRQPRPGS

[6] = target: T3, Apoptotic protease-activating factor 1 (Homo sapiens, UniProt O14727); type: functional
T3 sequence (O14727 whole entry): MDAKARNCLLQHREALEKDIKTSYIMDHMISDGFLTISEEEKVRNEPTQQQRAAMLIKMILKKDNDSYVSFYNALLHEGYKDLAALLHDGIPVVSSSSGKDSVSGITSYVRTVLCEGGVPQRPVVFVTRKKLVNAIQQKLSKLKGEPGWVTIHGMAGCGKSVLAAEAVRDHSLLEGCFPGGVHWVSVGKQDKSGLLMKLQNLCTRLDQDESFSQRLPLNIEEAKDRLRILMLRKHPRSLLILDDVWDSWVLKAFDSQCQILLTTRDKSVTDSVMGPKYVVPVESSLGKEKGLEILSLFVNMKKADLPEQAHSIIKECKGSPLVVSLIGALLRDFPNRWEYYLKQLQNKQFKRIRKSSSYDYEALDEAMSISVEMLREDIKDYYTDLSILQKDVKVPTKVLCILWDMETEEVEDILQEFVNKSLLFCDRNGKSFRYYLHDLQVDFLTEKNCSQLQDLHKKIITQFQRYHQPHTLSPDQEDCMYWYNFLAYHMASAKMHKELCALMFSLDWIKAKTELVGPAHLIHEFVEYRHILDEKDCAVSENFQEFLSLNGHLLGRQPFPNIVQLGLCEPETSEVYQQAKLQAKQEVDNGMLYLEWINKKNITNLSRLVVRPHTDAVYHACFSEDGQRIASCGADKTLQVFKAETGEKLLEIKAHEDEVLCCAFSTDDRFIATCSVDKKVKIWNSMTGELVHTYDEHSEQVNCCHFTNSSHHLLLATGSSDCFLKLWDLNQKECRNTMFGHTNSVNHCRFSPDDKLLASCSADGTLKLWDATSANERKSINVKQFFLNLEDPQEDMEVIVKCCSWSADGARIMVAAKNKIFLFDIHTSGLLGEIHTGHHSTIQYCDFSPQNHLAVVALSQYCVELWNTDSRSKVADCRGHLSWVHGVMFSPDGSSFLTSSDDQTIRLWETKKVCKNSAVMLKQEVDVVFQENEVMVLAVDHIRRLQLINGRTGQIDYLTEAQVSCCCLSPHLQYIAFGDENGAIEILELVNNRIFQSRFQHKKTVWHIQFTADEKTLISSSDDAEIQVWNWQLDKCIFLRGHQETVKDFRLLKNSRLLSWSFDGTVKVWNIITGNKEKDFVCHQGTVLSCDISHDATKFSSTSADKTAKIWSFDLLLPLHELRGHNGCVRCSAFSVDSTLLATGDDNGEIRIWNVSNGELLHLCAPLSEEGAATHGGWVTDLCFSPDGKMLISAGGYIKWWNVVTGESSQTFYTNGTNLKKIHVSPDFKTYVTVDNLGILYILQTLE

[7] = NIH-3T3 fibroblast cytotoxicity, dose response, cytotoxicity control, cell-based, fluorescence, Alamar Blue, secondary assay (AID 2327); type: functional;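 further: NIH-3T3 mouse fibroblasts cultured with fluconazole at 8 µg/mL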
[8] = inhibitors of firefly luciferase expression or activity, dose response, H4 neuroglioma cells, luminescence (AID 1990); type: functional, cell-based
cells [9] = type: functional, cell-based
[10] = Luminescence Cell-Based Dose Response HTS to Identify Inhibitors of 5'UTR Stem-Loop Driven Prion Protein mRNA Translation in H4 Neuroglioblastoma Cells. [Related pubchem assays: 1827 (Project Summary), 1813 (Primary HTS)]; type: functional
[11] = inhibitors of SNCA 5'UTR-driven reporter translation, confirmation, H4 neuroglioma cells, luminescence (AID 1988); type: functional, cell-based
[12] = C. albicans growth with fluconazole, confirmation, fluorescence, retest (AID 2467); type: functional, cell-based
[13] = inhibitors of intracellular T. cruzi replication, confirmation, NIH3T3 host cells, beta-gal luminescence (AID 2044); type: functional, cell-based;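 further: intracellular parasites grown in NIH/3T3 mouse fibroblasts as host cells; luminescent beta-galactosidase reporter signal from transgenic T. cruzi replicating inside host cells; inhibitors lower the luminescence signal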
cells [14] = type: functional, cell-based; remark: listed apart in the source
[15] = growth suppression of PTEN-null colon cells, dose response, cell-based, HCT116 PTEN knockout (AID 1047); type: functional;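 further: HCT116 colon tumor cells with PTEN knocked out; cells exposed to compound for 60 hours before readout; potency for loss of cell viability measured by luminescence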
[16] = cytotoxicity toward NIH3T3 fibroblasts, dose response, counter-screen, cell-based, ATP luminescence, mouse fibroblasts (AID 2010); type: functional; conditions: NIH3T3;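 further: cells exposed to compound for about 90 hours before reading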
[17] = growth suppression of beta-catenin-knockout colon cells, dose response, cell-based, HCT116, human colon tumor (AID 1045); type: functional;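 further: HCT116 colon tumor cells with beta catenin knocked out; cells exposed to compound for 60 hours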
Nonstructural protein 1 = Nonstructural protein 1 (Influenza A virus, UniProt Q194T2); type: functional, Influenza A virus (A/California/07/2009(H1N1))
[18] = test system: Streptococcus sp. 'group A'; test: growth inhibition of control SK(-) GAS strain, dose response, counter-screen for streptokinase expression inhibitor project, luminescence, kanamycin, BacTiterGlo, confirmation (AID 1900); type: functional, organism-based; conditions: Streptococcus sp. 'group A'
Streptokinase A = target: T4, Streptokinase A (Streptococcus pyogenes serotype M1, UniProt P10520); test: S. pyogenes streptokinase expression inhibitors, potency, dose response, plasminogen activation absorbance, OD405 (AID 1914); type: functional, Streptococcus pyogenes M1 GAS;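 further: secreted streptokinase activity via plasminogen activation per viability signal from cell pellet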
T4 sequence (P10520 whole entry): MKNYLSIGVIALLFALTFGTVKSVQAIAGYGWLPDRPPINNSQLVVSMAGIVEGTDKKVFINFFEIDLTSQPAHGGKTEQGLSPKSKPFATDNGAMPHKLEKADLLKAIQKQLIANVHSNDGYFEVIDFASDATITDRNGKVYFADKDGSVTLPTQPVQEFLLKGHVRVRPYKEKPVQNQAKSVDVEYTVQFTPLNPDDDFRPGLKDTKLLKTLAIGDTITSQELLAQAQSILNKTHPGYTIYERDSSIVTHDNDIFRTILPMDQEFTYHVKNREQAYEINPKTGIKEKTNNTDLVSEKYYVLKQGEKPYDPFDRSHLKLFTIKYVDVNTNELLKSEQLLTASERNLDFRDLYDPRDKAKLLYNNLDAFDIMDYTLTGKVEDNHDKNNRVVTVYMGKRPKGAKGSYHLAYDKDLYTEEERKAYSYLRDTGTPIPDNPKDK

Streptococcus = test: Group A Streptococcus viability loss, dose response, counter-screen for streptokinase expression inhibitor project, luminescence, BacTiterGlo (AID 1915); type: functional, organism-based; conditions: Streptococcus;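 further: potency for reduction of bacterial viability or growth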
[19] = THP-1 cell cytotoxicity, dose response, cytotoxicity control for non-replicating M. tuberculosis project (AID 489025); type: functional
[20] = HepG2 cell cytotoxicity, dose response, cytotoxicity control for non-replicating M. tuberculosis project (AID 489018); type: functional; conditions: Mycobacterium tuberculosis
[21] = Vero E6 cell cytotoxicity, dose response, cytotoxicity control for non-replicating M. tuberculosis project, secondary assay (AID 492998); type: functional, VeroE6; conditions: Vero C1008
cells [22] = type: functional

Sequence of Nonstructural protein 1 (Q194T2 whole entry): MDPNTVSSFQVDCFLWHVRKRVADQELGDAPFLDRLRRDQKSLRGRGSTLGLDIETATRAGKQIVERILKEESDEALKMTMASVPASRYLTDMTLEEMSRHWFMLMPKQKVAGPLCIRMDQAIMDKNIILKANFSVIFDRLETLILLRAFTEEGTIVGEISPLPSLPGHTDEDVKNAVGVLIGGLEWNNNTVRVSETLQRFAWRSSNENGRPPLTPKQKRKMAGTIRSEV
Sequence of Glucose-6-phosphate 1-dehydrogenase (P11413 whole entry): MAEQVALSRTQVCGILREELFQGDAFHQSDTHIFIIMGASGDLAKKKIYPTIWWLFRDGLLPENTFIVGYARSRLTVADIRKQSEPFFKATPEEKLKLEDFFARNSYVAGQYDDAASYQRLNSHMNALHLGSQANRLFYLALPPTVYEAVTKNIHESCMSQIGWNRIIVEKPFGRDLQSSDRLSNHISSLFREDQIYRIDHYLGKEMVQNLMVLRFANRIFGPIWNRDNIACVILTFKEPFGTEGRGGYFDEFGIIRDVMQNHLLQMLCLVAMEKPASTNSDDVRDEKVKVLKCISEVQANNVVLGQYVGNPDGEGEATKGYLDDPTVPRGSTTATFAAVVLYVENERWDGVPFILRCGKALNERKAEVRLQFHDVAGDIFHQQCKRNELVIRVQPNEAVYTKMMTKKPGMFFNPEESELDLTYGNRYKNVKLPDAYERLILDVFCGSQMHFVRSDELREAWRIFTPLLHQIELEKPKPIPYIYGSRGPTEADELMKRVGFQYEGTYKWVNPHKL

## Cc1cccc(C)c1NC(=O)C(Cl)C(=O)c1ccccc1 (centres undefined)
[1]
  AC50: 0.855 µM (active)

## CN1C(=O)C(N=Nc2ccc([N+](=O)[O-])cc2)SC1=S (centres undefined)
[2]
  IC50: > 80 µM (inactive)
[1]
  AC50: 14.5 µM (active)
[3]
  IC50: < 0.368 µM (active)
[4]
  EC50: 1.69 µM (active)

## O=C(CSc1ccccn1)Nc1ccc2c(c1)C(=O)c1ccccc1C2=O
[5]
  IC50: 3.08 µM (active)

## CCOC(=O)c1ccc(N2C(=O)CC(N(C)CCc3ccc(OC)c(OC)c3)C2=O)cc1 (centres undefined)
[1]
  AC50: 3.1 µM (active)

## CCOc1ccccc1N1CCN(C(=O)C2c3ccccc3Oc3ccccc32)CC1
[6]
  IC50: 29.3 µM (active)

## O=C(NNC(=O)c1ccc2ccccc2c1)c1ccc(Cl)c(Cl)c1
[5]
  IC50: > 80 µM (inactive)

## CN1CCN(Cc2cc(COCc3ccccc3)c3cccnc3c2O)CC1
[7]
  EC50: > 150 µM (inconclusive)
[8]
  EC50: 7.01 µM (active)
Cells [9]
  EC50: 7.14 µM (active)
[10]
  EC50: 8.1 µM (active)
[11]
  EC50: 5.83 µM (active)
[12]
  EC50: 0.8 µM (active)
[13]
  EC50: 1.37 µM (active)
Cells [14]
  EC50: > 350 µM (not active)
[15]
  EC50: 3.11 µM (active)
[16]
  EC50: 7.62 µM (active)
[17]
  EC50: 3.23 µM (active)
Nonstructural protein 1
  IC50: 3.98 µM (active)

## CCCc1cc(NCc2ccccn2)n2nc(C)c(-c3ccccc3)c2n1
[18]
  EC50: 6.67 µM (active)
Streptokinase A
  EC50: > 150 µM (not active)
[13]
  EC50: 3.58 µM (active)
[16]
  EC50: 8.73 µM (active)
Streptococcus
  EC50: 21.7 µM (active)
[19]
  CC50: 10.2 µM (active)
[20]
  CC50: 4.48 µM (active)
[21]
  CC50: > 20 µM (active)
Cells [22]
  IC50: 1.18 µM (active)
[1]
  AC50: 1.58 µM (active)

## CN(C)c1ccc(N=Nc2ccc3ncccc3c2)cc1
Nonstructural protein 1
  IC50: 20.4 µM (active)

## CCC(=O)Nc1nc2ccccc2n1Cc1ccc(C)cc1
[8]
  EC50: 15.1 µM (active)
[10]
  EC50: 11.8 µM (active)
[11]
  EC50: 8.69 µM (active)
[19]
  CC50: > 40 µM (active)
[20]
  CC50: > 20 µM (active)
[21]
  CC50: 16.1 µM (active)
Cells [22]
  IC50: 0.7 µM (active)
